In ChEMBL document CHEMBL3046487, “Preparation and root growth-modulatory activity of N-substituted 2-acetylamino-2-ethoxycarbonyl-3-(2-furyl)propanamides” (2001):

Key:
Assay type in all cases: functional
[1] = system: Allium tuberosum; assay: Root growth inhibition of Allium tuberosum seedling at 1 x 10^-3 M after 10 days by agar dilution method relative to control; settings: 240 h, read-out: GI
[2] = system: Brassica rapa subsp. oleifera; assay: Root growth inhibition of Brassica rapa subsp. oleifera seedling at 1 x 10^-3 M after 7 days by agar dilution method relative to control; settings: 168 h, read-out: GI
[3] = system: Allium tuberosum; assay: Root growth promotion of Allium tuberosum seedling at 1 x 10^-3 M after 10 days by agar dilution method relative to control; settings: 240 h, read-out: GI
[4] = system: Allium tuberosum; assay: Root growth inhibition of Allium tuberosum seedling at 1 x 10^-4 M after 10 days by agar dilution method relative to control; settings: 240 h, read-out: GI
[5] = system: Allium tuberosum; assay: Root growth inhibition of Allium tuberosum seedling at 5 x 10^-5 M after 10 days by agar dilution method relative to control; settings: 240 h, read-out: GI
[6] = system: Allium tuberosum; assay: Root growth inhibition of Allium tuberosum seedling at 5 x 10^-4 M after 10 days by agar dilution method relative to control; settings: 240 h, read-out: GI
[7] = system: Brassica rapa subsp. oleifera; assay: Root growth inhibition of Brassica rapa subsp. oleifera seedling at 5 x 10^-5 M after 7 days by agar dilution method relative to control; settings: 168 h, read-out: GI
[8] = system: Brassica rapa subsp. oleifera; assay: Root growth inhibition of Brassica rapa subsp. oleifera seedling at 1 x 10^-4 M after 7 days by agar dilution method relative to control; settings: 168 h, read-out: GI
[9] = system: Brassica rapa subsp. oleifera; assay: Root growth inhibition of Brassica rapa subsp. oleifera seedling at 5 x 10^-4 M after 7 days by agar dilution method relative to control; settings: 168 h, read-out: GI

Structure (SMILES) | inhibition of growth at 1000 µM [1] [%] | inhibition of growth at 1000 µM [2] [%] | inhibition of growth at 1000 µM [3] [%] | inhibition of growth at 100 µM [4] [%] | inhibition of growth at 50 µM [5] [%] | inhibition of growth at 500 µM [6] [%] | inhibition of growth at 50 µM [7] [%] | inhibition of growth at 100 µM [8] [%] | inhibition of growth at 500 µM [9] [%]
CCOC(=O)C(Cc1ccco1)(NC(C)=O)C(=O)OCC | 4 | 26 |  |  |  |  |  |  | 
CCOC(=O)C(Cc1ccco1)(NC(C)=O)C(=O)O (configuration not stated) | 47 | 66 |  |  |  |  |  |  | 
CCOC(=O)C(Cc1ccco1)(NC(C)=O)C(=O)Nc1ccccc1 (racemic) | 7 | 3 |  |  |  |  |  |  | 
CCCCNC(=O)C(Cc1ccco1)(NC(C)=O)C(=O)OCC (racemic) | 4 | 9 |  |  |  |  |  |  | 
CCOC(=O)C(Cc1ccco1)(NC(C)=O)C(=O)Nc1ccc(Cl)cc1 (racemic) |  | 49 | 14 |  |  |  |  |  | 
CCOC(=O)C(Cc1ccco1)(NC(C)=O)C(=O)NCc1ccco1 (racemic) |  | 13 | 36 |  |  |  |  |  | 
CCOC(=O)C(Cc1ccco1)(NC(C)=O)C(=O)Nc1nccs1 (racemic) | 29 | 53 |  |  |  |  |  |  | 
CCOC(=O)C(Cc1ccco1)(NC(C)=O)C(=O)Nc1ncc(C)s1 (racemic) | 42 | 61 |  |  |  |  |  |  | 
CCOC(=O)C(Cc1ccco1)(NC(C)=O)C(=O)Nc1ncc([N+](=O)[O-])s1 (racemic) | 54 | 94 |  |  |  |  |  |  | 
CCOC(=O)C(Cc1ccco1)(NC(C)=O)C(=O)Nc1ncc(Br)s1 (racemic) | 56 | 100 |  | 50 | 30 | 53 | 21 | 80 | 98
CCOC(=O)C(Cc1ccco1)(NC(C)=O)C(=O)Nc1nc2c(Cl)cccc2s1 (racemic) | 70 | 100 |  | 10 | 10 | 50 | 41 | 50 | 91
O=C(O)COc1ccc(Cl)cc1Cl [2,4-DICHLOROPHENOXYACETIC ACID] | 100 | 100 |  | 99 | 97 | 100 | 98 | 98 | 99
